Laboratory results taken from US7943770B2, “Fused quinoline derivative and use thereof” (Takeda Pharmaceutical Company Limited, priority 2004, dated 2011).

Biological target: T1, hNK2 receptor (Homo sapiens, UniProt P21452)
T1 construct: host or cells: CHO cells
T1 sequence (P21452 1-398): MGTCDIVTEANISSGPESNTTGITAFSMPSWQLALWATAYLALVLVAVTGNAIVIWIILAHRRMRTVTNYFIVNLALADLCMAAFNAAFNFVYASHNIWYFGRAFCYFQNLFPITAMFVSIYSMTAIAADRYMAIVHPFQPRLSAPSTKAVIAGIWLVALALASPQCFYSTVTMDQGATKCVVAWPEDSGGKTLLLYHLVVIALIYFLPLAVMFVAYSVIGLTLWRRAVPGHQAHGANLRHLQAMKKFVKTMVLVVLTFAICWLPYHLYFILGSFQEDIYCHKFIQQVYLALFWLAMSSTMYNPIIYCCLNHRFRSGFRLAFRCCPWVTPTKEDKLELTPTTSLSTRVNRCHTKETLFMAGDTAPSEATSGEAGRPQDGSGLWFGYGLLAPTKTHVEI
Test: Radio-ligand ([125I]-NKA) receptor binding inhibitory activity using membrane fraction of hNK2 receptor-expressing CHO cell
Settings: membrane fraction of hNK2 receptor-expressing CHO cells, 25° C., 30 min
Outline: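 Membranes from hNK2-expressing CHO cells (20 μg/mL suspension) incubated with test compound and [125I]-NKA ([…] solution as added) in Tris-HCl pH 7.4 with BSA, protease inhibitors, 3 mM MnCl2, 25 °C, 30 min. Bound radioactivity by GF/C filtration and scintillation; inhibition expressed relative to specific binding (total minus unlabeled-NKA non-specific).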

| IC50 [nM] | Compound |
| --- | --- |
| < 1 | COC[C@@H]1Nc2ccccc2[C@H]2[C@@H]1CCN2C(=O)[C@H]1CCCC[C@H]1NC(=O)c1ccc(-n2cccn2)cc1 [Example 264, N-((1R,2S)-2-{[(3aR,4R,9bR)-4-(Methoxymethyl)-2,3,3a,4,5,9b-hexahydro-1H-pyrrolo[3,2-c]quinolin-1-yl]carbonyl}cyclohexyl)-4-(1H-pyrazol-1-yl)benzamide] |
| < 1 | COC[C@@H]1Nc2ccccc2[C@H]2[C@@H]1CCN2C(=O)[C@H]1CCCC[C@H]1NC(=O)c1ccc(-n2cncn2)cc1 [Example 265, N-((1R,2S)-2-{[(3aR,4R,9bR)-4-(Methoxymethyl)-2,3,3a,4,5,9b-hexahydro-1H-pyrrolo[3,2-c]quinolin-1-yl]carbonyl}cyclohexyl)-4-(1H-1,2,4-triazol-1-yl)benzamide] |
| < 10 | COC[C@@H]1Nc2ccccc2[C@H]2[C@@H]1CCN2C(=O)[C@H]1CCCC[C@H]1NC(=O)c1ccc(NCCO)cc1 [Example 266, 4-[(2-Hydroxyethyl)amino]-N-((1R,2S)-2-{[(3aR,4R,9bR)-4-(methoxymethyl)-2,3,3a,4,5,9b-hexahydro-1H-pyrrolo[3,2-c]quinolin-1-yl]carbonyl}cyclohexyl)benzamide] |
| < 10 | COC[C@@H]1Nc2ccccc2[C@H]2[C@@H]1CCN2C(=O)[C@H]1CCCC[C@H]1NC(=O)c1ccc(N2CCN(C)CC2)cc1 [Example 267, N-((1R,2S)-2-{[(3aR,4R,9bR)-4-(Methoxymethyl)-2,3,3a,4,5,9b-hexahydro-1H-pyrrolo[3,2-c]quinolin-1-yl]carbonyl}cyclohexyl)-4-(4-methylpiperazin-1-yl)benzamide] |
| < 10 | COC[C@@H]1Nc2ccccc2[C@H]2[C@@H]1CCN2C(=O)[C@H]1CCCC[C@H]1NC(=O)c1ccc(N2CCOCC2)cc1 [Example 268, N-((1R,2S)-2-{[(3aR,4R,9bR)-4-(Methoxymethyl)-2,3,3a,4,5,9b-hexahydro-1H-pyrrolo[3,2-c]quinolin-1-yl]carbonyl}cyclohexyl)-4-morpholin-4-benzamide] |
| < 1 | COC[C@@H]1Nc2ccccc2[C@H]2[C@@H]1CCN2C(=O)[C@H]1CCCC[C@H]1NC(=O)c1ccc2c(c1)OCCN2C [Example 269, N-((1R,2S)-2-{[(3aR,4R,9bR)-4-(Methoxymethyl)-2,3,3a,4,5,9b-hexahydro-1H-pyrrolo[3,2-c]quinolin-1-yl]carbonyl}cyclohexyl)-4-methyl-3,4-dihydro-2H-1,4-benzoxazin-7-carboxamide] |
| < 10 | COC[C@@H]1Nc2ccccc2[C@H]2[C@@H]1CCN2C(=O)[C@H]1CCCC[C@H]1NC(=O)c1ccc(N(C)CCO)cc1 [Example 270, 4-[(2-Hydroxyethyl) (methyl)amino]-N-((1R,2S)-2-{[(3aR,4R,9bR)-4-(methoxymethyl)-2,3,3a,4,5,9b-hexahydro-1H-pyrrolo[3,2-c]quinolin-1-yl]carbonyl}cyclohexyl)benzamide] |
| < 10 | COC[C@@H]1Nc2ccccc2[C@H]2[C@@H]1CCN2C(=O)[C@H]1CCCC[C@H]1NC(=O)c1ccc(-n2ccnc2C)cc1 [Example 271, N-((1R,2S)-2-{[(3aR,4R,9bR)-4-(Methoxymethyl)-2,3,3a,4,5,9b-hexahydro-1H-pyrrolo[3,2-c]quinolin-1-yl]carbonyl}cyclohexyl)-4-(2-methyl-1H-imidazol-1-yl)benzamide] |
| < 1 | COC[C@@H]1Nc2ccccc2[C@H]2[C@@H]1CCN2C(=O)[C@H]1CCCC[C@H]1NC(=O)c1ccc(-n2cnc(C)c2)cc1 [Example 272, N-((1R,2S)-2-{[(3aR,4R,9bR)-4-(Methoxymethyl)-2,3,3a,4,5,9b-hexahydro-1H-pyrrolo[3,2-c]quinolin-1-yl]carbonyl}cyclohexyl)-4-(4-methyl-1H-imidazol-1-yl)benzamide] |
| < 1 | COCCN(C)c1ccc(C(=O)N[C@@H]2CCCC[C@@H]2C(=O)N2CC[C@@H]3[C@H](COC)Nc4ccccc4[C@@H]32)cc1 [Example 273, 4-[(2-Methoxyethyl)(methyl)amino]-N-((1R,2S)-2-{[(3aR,4R,9bR)-4-(methoxymethyl)-2,3,3a,4,5,9b-hexahydro-1H-pyrrolo[3,2-c]quinolin-1-yl]carbonyl}cyclohexyl)benzamide] |
| < 10 | COC[C@@H]1Nc2ccccc2[C@H]2[C@@H]1CCN2C(=O)[C@H]1CCCC[C@H]1NC(=O)c1ccc(C#N)c(OC)c1 [Example 274, 4-Cyano-3-methoxy-N-((1R,2S)-2-{[(3aR,4R,9bR)-4-(methoxymethyl)-2,3,3a,4,5,9b-hexahydro-1H-pyrrolo[3,2-c]quinolin-1-yl]carbonyl}cyclohexyl)benzamide] |
| < 1 | COC[C@@H]1Nc2ccccc2[C@H]2[C@@H]1CCN2C(=O)[C@H]1CCCC[C@H]1NC(=O)c1ccc(OC)c(C#N)c1 [Example 275, 3-Cyano-4-methoxy-N-((1R,2S)-2-{[(3aR,4R,9bR)-4-(methoxymethyl)-2,3,3a,4,5,9b-hexahydro-1H-pyrrolo[3,2-c]quinolin-1-yl]carbonyl}cyclohexyl)benzamide] |
| < 10 | COC[C@@H]1Nc2ccccc2[C@H]2[C@@H]1CCN2C(=O)[C@H]1CCCC[C@H]1NC(=O)c1ccc2c(c1)nc(C)n2C [Example 276, N-((1R,2S)-2-{[(3aR,4R,9bR)-4-(Methoxymethyl)-2,3,3a,4,5,9b-hexahydro-1H-pyrrolo[3,2-c]quinolin-1-yl]carbonyl}cyclohexyl)-1,2-dimethyl-1H-benzimidazole-5-carboxamide] |
| < 1 | COC[C@@H]1Nc2ccccc2[C@H]2[C@@H]1CCN2C(=O)[C@H]1CCCC[C@H]1NC(=O)Nc1ccc(-n2ccnc2)cc1 [Example 277, N-[4-(1H-Imidazol-1-yl)phenyl]-N′-((1R,2S)-2-{[(3aR,4R,9bR)-4-(methoxymethyl)-2,3,3a,4,5,9b-hexahydro-1H-pyrrolo[3,2-c]quinolin-1-yl]carbonyl}cyclohexyl)urea] |
| < 10 | COC[C@@H]1Nc2ccccc2[C@H]2[C@@H]1CCN2C(=O)[C@H]1CCCC[C@H]1NC(=O)c1ccc(S(C)(=O)=O)cc1 [Example 278, N-((1R,2S)-2-{[(3aR,4R,9bR)-4-(Methoxymethyl)-2,3,3a,4,5,9b-hexahydro-1H-pyrrolo[3,2-c]quinolin-1-yl]carbonyl}cyclohexyl)-4-(methylsulfonyl)benzamide] |
| < 1 | COC[C@@H]1Nc2ccccc2[C@H]2[C@@H]1CCN2C(=O)[C@H]1CCCC[C@H]1NC(=O)c1ccc2[nH]c(C)nc2c1 [Example 279, N-((1R,2S)-2-{[(3aR,4R,9bR)-4-(Methoxymethyl)-2,3,3a,4,5,9b-hexahydro-1H-pyrrolo[3,2-c]quinolin-1-yl]carbonyl}cyclohexyl)-2-methyl-1H-benzimidazole-5-carboxamide] |
| < 1 | COC[C@@H]1Nc2ccccc2[C@H]2[C@@H]1CCN2C(=O)[C@H]1CCCC[C@H]1NC(=O)c1c[nH]c(-c2ccccc2)n1 [Example 280, N-((1R,2S)-2-{[(3aR,4R,9bR)-4-(Methoxymethyl)-2,3,3a,4,5,9b-hexahydro-1H-pyrrolo[3,2-c]quinolin-1-yl]carbonyl}cyclohexyl)-2-phenyl-1H-imidazole-4-carboxamide] |
| < 1 | COC[C@@H]1Nc2ccccc2[C@H]2[C@@H]1CCN2C(=O)[C@H]1CCCC[C@H]1NC(=O)c1ccc(-c2ncc[nH]2)cc1 [Example 281, 4-(1H-imidazol-2-yl)-N-((1R,2S)-2-{[(3aR,4R,9bR)-4-(methoxymethyl)-2,3,3a,4,5,9b-hexahydro-1H-pyrrolo[3,2-c]quinolin-1-yl]carbonyl}cyclohexyl)benzamide] |
